Assay results from ChEMBL document CHEMBL4364324, “Triazole derivatives as inhibitors of Alzheimer's disease: Current developments and structure-activity relationships” (Eur J Med Chem, 2019).

What was measured:
[1] = target: T1, Cholinesterase (Homo sapiens, UniProt P06276)
Description: Inhibition of BuChE (unknown origin) using butyrylthiocholine chloride as substrate preincubated for 15 mins followed by substrate addition measured after 30 mins by Ellman's method

[2] = target: T2, Acetylcholinesterase (Electrophorus electricus, UniProt O42275); assay: Inhibition of electric eel AChE using acetylthiocholine iodide as substrate preincubated for 3 mins followed by substrate addition
[3] = target: T1, Cholinesterase; assay: Inhibition of human BuChE at 100 uM using acetylthiocholine iodide as substrate after 10 secs measured at 30 s intervals for two minutes by Ellman's method relative to control
[4] = target: T1, Cholinesterase; assay: Inhibition of BuChE (unknown origin) at 25 uM relative to control
[5] = target: T3, Beta-secretase 1 (Homo sapiens, UniProt P56817); assay: Inhibition of BACE1 (unknown origin) at 25 uM relative to control
T3 sequence (P56817 whole entry): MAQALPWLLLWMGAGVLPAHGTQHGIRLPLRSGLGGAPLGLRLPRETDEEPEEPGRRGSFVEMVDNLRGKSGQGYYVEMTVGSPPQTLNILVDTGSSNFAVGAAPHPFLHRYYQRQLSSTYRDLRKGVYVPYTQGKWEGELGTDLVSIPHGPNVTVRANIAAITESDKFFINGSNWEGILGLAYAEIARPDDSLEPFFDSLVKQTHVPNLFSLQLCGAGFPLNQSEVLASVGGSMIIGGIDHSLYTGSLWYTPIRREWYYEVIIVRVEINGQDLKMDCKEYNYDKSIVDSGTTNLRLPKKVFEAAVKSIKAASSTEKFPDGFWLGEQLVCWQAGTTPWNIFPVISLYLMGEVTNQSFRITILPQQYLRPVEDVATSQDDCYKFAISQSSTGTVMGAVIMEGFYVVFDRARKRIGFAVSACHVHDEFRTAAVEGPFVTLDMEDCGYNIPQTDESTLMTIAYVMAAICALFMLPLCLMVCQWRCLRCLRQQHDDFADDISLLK

[6] = target: T2, Acetylcholinesterase; assay: Inhibition of electric eel AChE using acetylthiocholine iodide as substrate after 15 mins by spectrophotometric analysis
[7] = target: T3, Beta-secretase 1; assay: Inhibition of BACE1 (unknown origin) expressed in baculovirus-expression system using Rh-EVNLDAEFK-Quencher substrate after 90 mins by FRET assay
[8] = target: T1, Cholinesterase; assay: Inhibition of BuChE (unknown origin) by Ellman's method
[9] = target: T4, Amyloid-beta precursor protein (Homo sapiens, UniProt P05067); assay: Inhibition of amyloid beta (1 to 42) (unknown origin) self aggregation relative to control; conditions: concentration not given here
T4 sequence (P05067 whole entry): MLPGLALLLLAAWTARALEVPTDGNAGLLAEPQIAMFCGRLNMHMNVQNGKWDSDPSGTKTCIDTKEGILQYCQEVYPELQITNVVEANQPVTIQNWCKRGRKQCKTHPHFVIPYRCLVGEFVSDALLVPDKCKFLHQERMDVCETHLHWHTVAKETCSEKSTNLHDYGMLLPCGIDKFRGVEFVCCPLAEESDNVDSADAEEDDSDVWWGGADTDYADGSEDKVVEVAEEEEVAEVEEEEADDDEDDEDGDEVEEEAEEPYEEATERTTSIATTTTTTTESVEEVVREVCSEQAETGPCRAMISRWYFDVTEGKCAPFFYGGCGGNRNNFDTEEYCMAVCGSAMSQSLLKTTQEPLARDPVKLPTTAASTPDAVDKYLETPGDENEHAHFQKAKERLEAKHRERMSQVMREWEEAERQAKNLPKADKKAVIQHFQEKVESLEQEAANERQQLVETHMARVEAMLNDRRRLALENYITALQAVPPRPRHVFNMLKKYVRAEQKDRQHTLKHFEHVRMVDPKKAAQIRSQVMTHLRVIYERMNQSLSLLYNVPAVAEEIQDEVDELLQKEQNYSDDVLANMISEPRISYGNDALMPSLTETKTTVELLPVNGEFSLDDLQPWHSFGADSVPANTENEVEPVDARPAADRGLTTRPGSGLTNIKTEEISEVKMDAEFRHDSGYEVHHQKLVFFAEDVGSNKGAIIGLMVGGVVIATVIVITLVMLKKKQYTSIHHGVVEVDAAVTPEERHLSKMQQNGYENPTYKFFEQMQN

[10] = target: Cholinesterase (Equus caballus, UniProt P81908); assay: Inhibition of equine serum BuChE using butyrylthiocholine iodide as substrate preincubated for 3 mins followed by substrate addition
Sequence of Cholinesterase (Equus caballus, UniProt P81908) (P81908 whole entry): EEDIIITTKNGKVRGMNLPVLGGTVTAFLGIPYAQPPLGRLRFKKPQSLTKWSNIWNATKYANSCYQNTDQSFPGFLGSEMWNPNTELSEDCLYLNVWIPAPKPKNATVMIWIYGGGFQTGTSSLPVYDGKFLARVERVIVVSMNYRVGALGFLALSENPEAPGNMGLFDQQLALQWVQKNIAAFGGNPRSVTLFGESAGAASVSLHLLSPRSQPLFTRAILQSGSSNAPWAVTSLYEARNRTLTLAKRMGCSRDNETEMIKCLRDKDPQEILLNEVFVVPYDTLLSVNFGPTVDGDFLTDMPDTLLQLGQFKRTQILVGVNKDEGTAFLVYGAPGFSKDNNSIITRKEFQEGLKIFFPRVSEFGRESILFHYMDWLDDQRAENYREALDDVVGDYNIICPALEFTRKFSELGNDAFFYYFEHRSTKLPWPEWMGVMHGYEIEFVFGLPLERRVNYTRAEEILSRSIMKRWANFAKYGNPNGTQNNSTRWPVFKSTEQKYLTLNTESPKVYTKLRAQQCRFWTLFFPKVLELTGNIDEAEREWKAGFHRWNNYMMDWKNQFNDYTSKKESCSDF

[11] = target: T2, Acetylcholinesterase
Description: Inhibition of electric eel AChE using acetylthiocholine iodide as substrate preincubated for 10 mins followed by substrate addition measured after 15 mins by Ellman's method

[12] = target: T1, Cholinesterase; remark: listed apart in the source
[13] = target: T1, Cholinesterase; assay: Inhibition of BuChE (unknown origin) after 2 mins
[14] = target: Cholinesterase (Equus caballus) (UniProt P81908); assay: Inhibition of equine serum BuChE using butyrylthiocholine iodide as substrate preincubated for 10 mins followed by substrate addition measured after 15 mins by Ellman's method relative to control
Sequence of Cholinesterase (Equus caballus) (P81908 whole entry): as above

[15] = tested on: HCT-116; assay: Cytotoxicity against human HCT116 cells after 18 hrs by MTT assay; format: functional, cell-based; conditions: HCT-116, 18 h
[16] = target: T4, Amyloid-beta precursor protein

T2 sequence (O42275 whole entry): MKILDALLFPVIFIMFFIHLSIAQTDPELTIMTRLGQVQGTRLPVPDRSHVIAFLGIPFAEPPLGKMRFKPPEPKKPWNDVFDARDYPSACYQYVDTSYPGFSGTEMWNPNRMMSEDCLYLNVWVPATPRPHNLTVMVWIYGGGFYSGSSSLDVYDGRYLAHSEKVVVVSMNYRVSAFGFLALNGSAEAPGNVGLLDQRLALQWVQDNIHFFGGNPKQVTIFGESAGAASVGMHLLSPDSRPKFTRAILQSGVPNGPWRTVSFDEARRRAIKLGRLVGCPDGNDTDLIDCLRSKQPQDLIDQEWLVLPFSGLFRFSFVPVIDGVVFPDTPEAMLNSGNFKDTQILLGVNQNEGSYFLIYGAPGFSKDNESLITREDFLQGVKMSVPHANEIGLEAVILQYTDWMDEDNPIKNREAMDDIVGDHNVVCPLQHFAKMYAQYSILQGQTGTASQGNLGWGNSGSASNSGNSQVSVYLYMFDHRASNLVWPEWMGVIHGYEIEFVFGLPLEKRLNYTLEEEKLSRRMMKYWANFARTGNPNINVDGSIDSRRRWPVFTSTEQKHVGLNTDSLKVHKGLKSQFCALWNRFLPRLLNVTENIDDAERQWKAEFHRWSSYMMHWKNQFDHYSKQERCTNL
T1 sequence (P06276 whole entry): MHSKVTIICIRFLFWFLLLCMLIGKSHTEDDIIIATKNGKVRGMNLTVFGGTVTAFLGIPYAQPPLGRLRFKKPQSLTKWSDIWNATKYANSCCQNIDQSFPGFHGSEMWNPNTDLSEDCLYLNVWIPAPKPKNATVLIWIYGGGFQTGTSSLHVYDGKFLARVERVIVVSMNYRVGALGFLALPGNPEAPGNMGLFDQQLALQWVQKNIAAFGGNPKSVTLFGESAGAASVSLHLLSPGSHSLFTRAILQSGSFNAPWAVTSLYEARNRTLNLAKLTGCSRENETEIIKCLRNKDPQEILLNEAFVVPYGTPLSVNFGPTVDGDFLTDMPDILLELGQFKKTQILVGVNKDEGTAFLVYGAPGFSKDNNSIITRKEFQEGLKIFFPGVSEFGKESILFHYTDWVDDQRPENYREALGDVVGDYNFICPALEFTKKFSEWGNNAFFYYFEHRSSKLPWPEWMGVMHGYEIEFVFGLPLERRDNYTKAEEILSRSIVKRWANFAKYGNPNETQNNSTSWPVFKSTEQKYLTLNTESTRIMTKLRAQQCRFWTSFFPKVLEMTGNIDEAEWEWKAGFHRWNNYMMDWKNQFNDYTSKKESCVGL

SMILES: CN(C)CCCC1(c2ccc(F)cc2)CCc2cc(-c3nnc(-c4cccc(Cl)c4)[nH]3)ccc21 (stereo unspecified)
- IC50 [1]: 4.52 to 9.52 µM

SMILES: O=C(NC1CCN(Cc2ccccc2)CC1)c1cc2ccc(OCc3cn(Cc4ccc(Cl)c(Cl)c4)nn3)cc2oc1=O
- IC50 [2]: 3.29 to 29.4 µM

SMILES: CN(C)CCCC1(c2ccc(F)cc2)CCc2cc(-c3nnc(-c4cccc(F)c4)[nH]3)ccc21 (stereo unspecified)
- IC50 [1]: 4.52 to 9.52 µM

SMILES: COc1ccc2c(c1)C/C(=C\c1ccc(-c3cn(-c4ccnc5ccccc45)nn3)cc1)C2=O
- inhibition [3]: 0.2%

SMILES: Cc1ccccc1Cn1cc(Cn2c3ccccc3c3ccccc32)nn1
- IC50 [3]: > 100 µM

SMILES: Clc1ccc(-c2cn(C[C@@H]3Cc4c([nH]c5ccccc45)CN3)nn2)cc1Cl
- inhibition [4]: 61.5%
- inhibition [5]: 61.5%

SMILES: CCn1cc(-c2nnc(O)n2Cc2ccccc2)c(=O)c2cc(Cl)c(F)cc21
- IC50 [6]: 1.2 mM

SMILES: CN(C)CCCC1(c2ccc(F)cc2)CCc2cc(-c3nnc(-c4ccccc4F)[nH]3)ccc21 (stereo unspecified)
- IC50 [1]: 4.52 µM

SMILES: Clc1ccc(Cn2cc(COc3ccc(/C=N/Nc4nnc(-c5ccccc5)c(-c5ccccc5)n4)cc3)nn2)cc1
- IC50 [7]: 8.55 µM

SMILES: Fc1ccccc1Cn1cc(Cn2c3ccccc3c3ccccc32)nn1
- IC50 [3]: > 100 µM

SMILES: O=C(NC1CCN(Cc2ccccc2)CC1)c1cc2ccc(OCc3cn(Cc4cccc(Cl)c4Cl)nn3)cc2oc1=O
- IC50 [2]: 3.29 to 29.4 µM

SMILES: COc1ccc2c(c1)C(=O)/C(=C/c1ccc(-c3cn(-c4ccnc5ccccc45)nn3)cc1)C2
- inhibition [3]: 0%

SMILES: Cc1nn(CC(=O)N/N=C/c2cccc(Br)c2)c(=O)n1-c1ccc(C(=O)N/N=C/c2cccc(Br)c2)cc1
- IC50 [8]: 93.7 nM

SMILES: Cc1cccc(Cn2cc(Cn3c4ccccc4c4ccccc43)nn2)c1
- IC50 [3]: > 100 µM

SMILES: O=C(NC1CCN(Cc2ccccc2)CC1)c1cc2ccc(OCc3cn(Cc4ccc(F)cc4)nn3)cc2oc1=O
- IC50 [2]: 3.29 to 29.4 µM

SMILES: Cc1nn(CC(=O)N/N=C/c2ccccc2)c(=O)n1-c1ccc(C(=O)N/N=C/c2ccccc2)cc1
- IC50 [8]: 70.2 nM

SMILES: COc1cc(/C=C/C(=O)CC(=O)/C=C/c2ccc(O)c(OC)c2)ccc1O
- inhibition [9]: 95.1%

SMILES: O=C(/C=C/c1ccc(O)c(O)c1)NCc1cn(C[C@@H]2Cc3c([nH]c4ccccc34)CN2)nn1
- inhibition [5]: 40%

SMILES: Cc1nn(CC(=O)N/N=C/c2ccc(Br)cc2)c(=O)n1-c1ccc(C(=O)N/N=C/c2ccc(Br)cc2)cc1
- IC50 [8]: 125 nM

SMILES: Oc1ccc2cc(-c3cn(C[C@@H]4Cc5c([nH]c6ccccc56)CN4)nn3)ccc2c1
- inhibition [5]: 30.4%

SMILES: Cc1ccc(Cn2cc(COc3ccc4cc(C(=O)NC5CCN(Cc6ccccc6)CC5)c(=O)oc4c3)nn2)cc1C
- IC50 [10]: > 100 µM
- IC50 [2]: 1.8 µM

SMILES: CN(C)C(=O)Oc1cccc([N+](C)(C)C)c1 [NEOSTIGMINE]
- IC50 [11]: 16.3 µM

SMILES: O=C(NC1CCN(Cc2ccccc2)CC1)c1cc2ccc(OCc3cn(Cc4ccccc4Br)nn3)cc2oc1=O
- IC50 [2]: 3.29 to 29.4 µM

SMILES: CC1(C)Oc2cc3oc(=O)ccc3cc2CC1OC(=O)n1cc(CNC(=O)CCCCC2CCSS2)nn1 (stereo unspecified)
- IC50 [12]: 5.89 mM

SMILES: O=c1ccc2ccc(OCCCCCCCn3cc(CNc4c5c(nc6ccccc46)CCCC5)nn3)cc2o1
- IC50 [13]: 6 nM

SMILES: Cc1ccc(OCc2nn3c(-c4cccc(Br)c4)nnc3s2)cc1
- IC50 [11]: 0.117 µM
- inhibition [14]: 50%

SMILES: COc1cc(-c2nnc(-c3ccc4c(c3)CCC4(CCCN(C)C)c3ccc(F)cc3)[nH]2)ccc1O (stereo unspecified)
- IC50 [1]: 4.52 to 9.52 µM

SMILES: O=C(CCCc1ccc(O)cc1)NCc1cn(C[C@@H]2Cc3c([nH]c4ccccc34)CN2)nn1
- inhibition [5]: 33%

SMILES: Cc1cc(=O)oc2cc(OCCCCCn3cc(CNc4c5c(nc6cc(Cl)ccc46)CCCC5)nn3)ccc12
- IC50 [13]: 27 nM

SMILES: Fc1cccc(Cn2cc(Cn3c4ccccc4c4ccccc43)nn2)c1
- IC50 [3]: > 100 µM

SMILES: O=[N+]([O-])c1ccc(Cn2cc(COc3ccc(/C=N/Nc4nnc(-c5ccccc5)c(-c5ccccc5)n4)cc3)nn2)cc1
- IC50 [7]: 11.4 µM

SMILES: O=c1oc2ccccc2c2c1cnn2Cc1cn(-c2c(Cl)cc(Cl)cc2Cl)nn1
- IC50 [15]: 6 µM

SMILES: CN(C)CCCC1(c2ccc(F)cc2)CCc2cc(-c3nnc(-c4ccc(F)cc4)[nH]3)ccc21 (stereo unspecified)
- IC50 [1]: 5.31 µM

SMILES: Cc1nn(CC(=O)N/N=C/c2ccc(Cl)cc2)c(=O)n1-c1ccc(C(=O)N/N=C/c2ccc(Cl)cc2)cc1
- IC50 [8]: 55.7 nM

SMILES: CC(C)(C)c1ccc(-c2cn(C[C@@H]3Cc4c([nH]c5ccccc45)CN3)nn2)cc1
- inhibition [5]: 18.9%

SMILES: CCn1c(O)nnc1-c1cn(CC)c2ccc(C)cc2c1=O
- IC50 [6]: 1.74 mM

SMILES: COc1ccc(/C=N/NC(=O)Cn2nc(C)n(-c3ccc(C(=O)N/N=C/c4ccc(OC)cc4)cc3)c2=O)cc1
- IC50 [8]: 48.6 to 125 nM

SMILES: O=C(NC1CCN(Cc2ccccc2)CC1)c1cc2ccc(OCc3cn(Cc4ccccc4Cl)nn3)cc2oc1=O
- IC50 [2]: 3.29 to 29.4 µM

SMILES: Cc1nn(CC(=O)N/N=C/c2ccc(Br)cc2O)c(=O)n1-c1ccc(C(=O)N/N=C/c2ccc(Br)cc2O)cc1
- IC50 [8]: 48.6 nM

SMILES: CCOC(=O)C(Cc1cn(-c2ccccc2C(F)(F)F)nn1)(Cc1cn(-c2ccccc2C(F)(F)F)nn1)NC(C)=O
- inhibition [9]: 96.9%
- IC50 [16]: 8.06 µM

SMILES: CN(C)CCCC1(c2ccc(F)cc2)CCc2cc(-c3nnc(-c4ccccc4I)[nH]3)ccc21 (stereo unspecified)
- IC50 [1]: 4.52 to 9.52 µM

SMILES: COc1cccc(Cn2cc(Cn3c4ccccc4c4ccccc43)nn2)c1
- IC50 [3]: > 100 µM
